According to patent publication US20100056508A1, “AMINE DERIVATIVES AND THEIR USE IN BETA-2-ADRENORECEPTOR MEDIATED DISEASES” (ASTRAZENECA AB, priority 2006, published 2010):
Where a name gives a salt, the structure may show the parent alone.

Key:
Adrenergic β2 = biological target: T1, Adrenergic β2 (Homo sapiens, UniProt P07550); test: Adrenergic β2 mediated cAMP production in H292 cells (AlphaScreen cAMP detection); format: cell-based; set-up: key to β2 Int Act: fraction of formoterol maximum activity (formoterol = 1); settings: for β2 Int Act: Intrinsic Activity as a fraction relative to the maximum activity determined for formoterol; for EC50: cAMP production, 60 minutes at room temperature, 300 μM rolipram, read-out: β2 pEC50 (converted)
T1 construct: Adherent H292 cells were removed from tissue culture flasks; endogenous in cells; host or cells: H292 cells
Method: Adrenergic β2 Mediated cAMP Production
H292 cells were grown in 225 cm2 flasks incubator at 37° C., 5% CO2 in RPMI medium containing, 10% (v/v) FBS (foetal bovine serum) and 2 mM L-glutamine.
Adherent H292 cells were removed from tissue culture flasks by treatment with Accutase™ cell detachment solution for 15 minutes. Flasks were incubated for 15 minutes in a humidified incubator at 37° C., 5% CO2. Detached cells were re-suspended in RPMI media (containing 10% (v/v) FBS and 2 mM L-glutamine) at 1×10^6 cells per mL. 10000 cells in 100 μL were added to each well of a tissue-culture-treated 96-well plate and the cells incubated overnight in a humidified incubator at 37° C., 5% CO2. The culture media was removed and cells were washed twice with 100 μL assay buffer and replaced with 50 μL assay buffer (HBSS solution containing 10 mM HEPES pH7.4 and 5 mM glucose). Cells were rested at room temperature for 20 minutes after which time 25 μL of rolipram (1.2 mM made up in assay buffer containing 2.4% (v/v) dimethylsulphoxide) was added. Cells were incubated with rolipram for 10 minutes after which time test compounds were added and the cells were incubated for 60 minutes at room temperature. The final rolipram concentration in the assay was 300 μM and final vehicle concentration was 1.6% (v/v) dimethylsulphoxide. The reaction was stopped by removing supernatants, washing once with 100 μL assay buffer and replacing with 50 μL lysis buffer. The cell monolayer was frozen at −80° C. for 30 minutes (or overnight).
AlphaScreen™ cAMP Detection
The concentration of cAMP (cyclic adenosine monophosphate) in the cell lysate was determined using AlphaScreen™ methodology. The frozen cell plate was thawed for 20 minutes on a plate shaker then 10 μL of the cell lysate was transferred to a 96-well white plate. 40 μL of mixed AlphaScreen™ detection beads pre-incubated with biotinylated cAMP, was added to each well and the plate incubated at room temperature for 10 hours in the dark. The AlphaScreen™ signal was measured using an EnVision spectrophotometer (Perkin-Elmer Inc.) with the recommended manufacturer's settings. cAMP concentrations were determined by reference to a calibration curve determined in the same experiment using standard cAMP concentrations. Concentration response curves for agonists were constructed and data was fitted to a four parameter logistic equation to determine both the pEC50 and Intrinsic Activity. Intrinsic Activity was expressed as a fraction relative to the maximum activity determined for formoterol in each experiment.

[1] = biological target: T2, recombinant human Dopamine Subtype D2s receptors (Homo sapiens, UniProt P14416); test: Dopamine D2 selectivity assay, [3H]-spiperone binding to membranes; settings: inhibition of [3H]-spiperone binding, read-out: D2 bind pIC50 (converted)
T2 construct: purchased Perkin Elmer
Method: Membranes containing recombinant human Dopamine Subtype D2s receptors were obtained from Perkin Elmer. These were diluted in Assay Buffer (50 mM HEPES, 1 mM EDTA, 120 mM NaCl, 0.1% gelatin, pH 7.4) to provide a final concentration of membranes that gave a clear window between maximum and minimum specific binding.
Assays were performed in U-bottomed 96-well polypropylene plates. 30 μL [^3H]-spiperone (0.16 nM final concentration) and 30 μL of test compound (10× final concentration) were added to each test well. For each assay plate 8 replicates were obtained for [^3H]-spiperone binding in the presence of 30 μL vehicle (10% (v/v) DMSO in Assay Buffer; defining maximum binding) or 30 μL Haloperidol (10 μM final concentration; defining non-specific binding (NSB)). Membranes were then added to achieve a final volume of 300 μL. The plates were incubated for 2 hours at room temperature and then filtered onto PEI coated GF/B filter plates, pre-soaked for 1 hour in Assay Buffer, using a 96-well plate Tomtec cell harvester. Five washes with 250 μL wash buffer (50 mM HEPES, 1 mM EDTA, 120 mM NaCl, pH 7.4) were performed at 4° C. to remove unbound radioactivity. The plates were dried then sealed from underneath using Packard plate sealers and MicroScint-0 (50 μL) was added to each well. The plates were sealed (TopSeal A) and filter-bound radioactivity was measured with a scintillation counter (TopCount, Packard BioScience) using a 3-minute counting protocol.
Total specific binding (B0) was determined by subtracting the mean NSB from the mean maximum binding. NSB values were also subtracted from values from all other wells. […] Data was fitted to a four parameter logistic equation to determine the compound potency, which was expressed as pIC50 (negative log molar concentration inducing 50% inhibition of [^3H]-spiperone binding).

T2 sequence (P14416 1-414 isoform P14416-2): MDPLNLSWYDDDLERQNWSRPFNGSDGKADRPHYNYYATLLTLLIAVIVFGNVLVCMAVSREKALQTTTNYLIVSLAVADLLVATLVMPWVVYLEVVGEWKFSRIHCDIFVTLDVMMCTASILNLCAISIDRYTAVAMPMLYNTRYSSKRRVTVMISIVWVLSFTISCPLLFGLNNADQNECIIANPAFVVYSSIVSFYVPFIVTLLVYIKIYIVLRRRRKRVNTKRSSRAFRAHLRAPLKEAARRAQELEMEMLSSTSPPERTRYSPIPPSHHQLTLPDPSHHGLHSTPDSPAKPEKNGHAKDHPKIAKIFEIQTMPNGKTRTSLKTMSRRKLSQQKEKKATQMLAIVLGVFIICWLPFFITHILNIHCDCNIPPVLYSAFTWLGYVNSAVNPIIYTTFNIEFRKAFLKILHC
T1 sequence (P07550 whole entry): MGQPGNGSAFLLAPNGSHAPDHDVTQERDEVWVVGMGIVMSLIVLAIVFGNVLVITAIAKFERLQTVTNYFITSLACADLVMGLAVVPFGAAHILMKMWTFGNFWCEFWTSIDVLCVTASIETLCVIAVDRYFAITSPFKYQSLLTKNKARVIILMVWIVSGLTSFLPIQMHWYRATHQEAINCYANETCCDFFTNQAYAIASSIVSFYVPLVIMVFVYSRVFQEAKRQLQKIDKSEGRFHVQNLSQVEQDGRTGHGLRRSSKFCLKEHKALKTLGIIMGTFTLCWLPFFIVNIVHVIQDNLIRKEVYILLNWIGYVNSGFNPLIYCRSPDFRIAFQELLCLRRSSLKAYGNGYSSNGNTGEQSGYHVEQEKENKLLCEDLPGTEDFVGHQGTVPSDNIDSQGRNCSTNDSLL

Row | Compound | β2 Int Act (Adrenergic β2) | EC50 (Adrenergic β2) [nM] | IC50 [1] [nM]
1 | O=C(CCNCCc1ccccc1)N(CCNCCc1ccc(O)c(O)c1)C1CCCCC1 [Example 22, N-Cyclohexyl-N-(2-(3,4-dihydroxyphenethylamino)ethyl)-3-(phenethylamino)propanamide bis(trifluoroacetate)] | 1.01 | 20 | 501
2 | CCCC[C@@H](C)N(CCNCCc1ccc(O)c2c1OCC(=O)N2)C(=O)CCNCCc1ccc(F)c(Cl)c1 [Example 48, (R)-3-(3-Chloro-4-fluorophenethylamino)-N-(hexan-2-yl)-N-(2-(2-(5-hydroxy-3-oxo-3,4-dihydro-2H-benzo[b][1,4]oxazin-8-yl)ethylamino)ethyl)propanamide bis(trifluoroacetate)] | 0.91 | 2 | 79.4
3 | CCCC[C@@H](C)N(CCNCCc1ccc(O)c2c1OCC(=O)N2)C(=O)CCNCCc1cc(F)ccc1C [Example 57, (R)-3-(5-Fluoro-2-methylphenethylamino)-N-(hexan-2-yl)-N-(2-(2-(5-hydroxy-3-oxo-3,4-dihydro-2H-benzo[b][1,4]oxazin-8-yl)ethylamino)ethyl)propanamide bis(trifluoroacetate)] | 0.91 | 7.94 | 15.8
4 | CCCC[C@@H](C)N(CCNCCc1ccc(O)c2c1OCC(=O)N2)C(=O)CCNCCc1ccccc1 [Example 25, (R)—N-(Hexan-2-yl)-N-(2-(2-(5-hydroxy-3-oxo-3,4-dihydro-2H-benzo[b][1,4]oxazin-8-yl)ethylamino)ethyl)-3-(phenethylamino)propanamide bis(trifluoroacetate)] | 0.9 | 1 | 100
5 | O=C1COc2c(CCNCCN(C(=O)CCOCCc3ccc(F)cc3)C3CCCCC3)ccc(O)c2N1 [Example 75, N-Cyclohexyl-3-(4-fluorophenethoxy)-N-(2-(2-(5-hydroxy-3-oxo-3,4-dihydro-2H-benzo[b][1,4]oxazin-8-yl)ethylamino)ethyl)propanamide trifluoroacetate] | 0.96 | 2.51 | 2000
6 | O=C(CCNCCc1cccc(Cl)c1)N(CCNCCc1ccc(O)c2[nH]c(=O)ccc12)C1CCCCCC1 [Example 3, 3-(3-Chlorophenethylamino)-N-cycloheptyl-N-(2-(2-(8-hydroxy-2-oxo-1,2-dihydroquinolin-5-yl)ethylamino)ethyl)propanamide bis(trifluoroacetate)] | 0.82 | 7.94 | 200
7 | CCCC[C@@H](C)N(CCNCCc1ccc(O)c2c1OCC(=O)N2)C(=O)CCNCCc1cc(F)cc(F)c1 [Example 51, (R)-3-(3,5-Difluorophenethylamino)-N-(hexan-2-yl)-N-(2-(2-(5-hydroxy-3-oxo-3,4-dihydro-2H-benzo[b][1,4]oxazin-8-yl)ethylamino)ethyl)propanamide bis(trifluoroacetate)] | 0.94 | 1.58 | 39.8
8 | CCCC[C@@H](C)N(CCNCCc1ccc(O)c2c1OCC(=O)N2)C(=O)CCNCCc1ccc(Cl)s1 [Example 49, (R)-3-(2-(5-Chlorothiophen-2-yl)ethylamino)-N-(hexan-2-yl)-N-(2-(2-(5-hydroxy-3-oxo-3,4-dihydro-2H-benzo[b][1,4]oxazin-8-yl)ethylamino)ethyl)propanamide bis(trifluoroacetate)] | 1.01 | 2.51 | 63.1
9 | O=C(CCNCCc1cc(F)cc(F)c1)N(CCNCCc1ccc(O)c2[nH]c(=O)ccc12)C1CCCCC1 [Example 15, N-Cyclohexyl-3-(3,5-difluorophenethylamino)-N-(2-(2-(8-hydroxy-2-oxo-1,2-dihydroquinolin-5-yl)ethylamino)ethyl)propanamide bis(trifluoroacetate)] | 0.88 | 7.94 | 1260

Continued, values first:

Row | β2 Int Act (Adrenergic β2) | EC50 (Adrenergic β2) [nM] | IC50 [1] [nM] | Compound
10 | 0.97 | 31.6 | > 10000 | O=C1COc2c(CCNCCN(C(=O)CCNCCc3ccc(C(=O)O)cc3)C3CCCCC3)ccc(O)c2N1 [Example 43, 4-(2-(3-(Cyclohexyl(2-(2-(5-hydroxy-3-oxo-3,4-dihydro-2H-benzo[b][1,4]oxazin-8-yl)ethylamino)ethyl)amino)-3-oxopropylamino)ethyl)benzoic acid bis(trifluoroacetate)]
11 | 0.74 | 2.51 | 31.6 | O=C1COc2c(CCNCCN(C(=O)CCNCCc3ccc(Cl)c(Cl)c3)C3CCCCCC3)ccc(O)c2N1 [Example 26, N-Cycloheptyl-3-(3,4-dichlorophenethylamino)-N-(2-(2-(5-hydroxy-3-oxo-3,4-dihydro-2H-benzo[b][1,4]oxazin-8-yl)ethylamino)ethyl)propanamide bis(trifluoroacetate)]
12 | 0.94 | 6.31 | 100 | O=C1COc2c(CCNCCN(C(=O)CCNCCc3ccc(Cl)cc3Cl)C3CCCCC3)ccc(O)c2N1 [Example 31, N-Cyclohexyl-3-(2,4-dichlorophenethylamino)-N-(2-(2-(5-hydroxy-3-oxo-3,4-dihydro-2H-benzo[b][1,4]oxazin-8-yl)ethylamino)ethyl)propanamide bis(trifluoroacetate)]
13 | 0.89 | 2 | 251 | O=C1COc2c(CCNCCN(C(=O)CCNCCc3cccc(Cl)c3)C3CCCCC3)ccc(O)c2N1 [Example 27, 3-(3-Chlorophenethylamino)-N-cyclohexyl-N-(2-(2-(5-hydroxy-3-oxo-3,4-dihydro-2H-benzo[b][1,4]oxazin-8-yl)ethylamino)ethyl)propanamide bis(trifluoroacetate)]
14 | 0.87 | 1.58 | 251 | O=C1COc2c(CCNCCN(C(=O)CCNCCc3cc(F)cc(F)c3)C3CCCCC3)ccc(O)c2N1 [Example 35, N-Cyclohexyl-3-(3,5-difluorophenethylamino)-N-(2-(2-(5-hydroxy-3-oxo-3,4-dihydro-2H-benzo[b][1,4]oxazin-8-yl)ethylamino)ethyl)propanamide bis(trifluoroacetate)]
15 | 0.99 | 2.51 | 39.8 | O=C1COc2c(CCNCCN(C(=O)CCNCCc3cc(F)cc(Cl)c3)C3CCCCCC3)ccc(O)c2N1 [Example 66, 3-(3-Chloro-5-fluorophenethylamino)-N-cycloheptyl-N-(2-(2-(5-hydroxy-3-oxo-3,4-dihydro-2H-benzo[b][1,4]oxazin-8-yl)ethylamino)ethyl)propanamide bis(trifluoroacetate)]
16 | 0.93 | 1.58 | 126 | O=C1COc2c(CCNCCN(C(=O)CCNCCc3cc(F)cc(F)c3)C3CCCCCC3)ccc(O)c2N1 [Example 65, N-Cycloheptyl-3-(3,5-difluorophenethylamino)-N-(2-(2-(5-hydroxy-3-oxo-3,4-dihydro-2H-benzo[b][1,4]oxazin-8-yl)ethylamino)ethyl)propanamide bis(trifluoroacetate)]
